{"source": "patent US7102009B2", "about": "“Substituted amine derivatives and methods of use” (Amgen Inc., priority 2001, dated 2006)", "data": [{"tested_on": "Human Umbilical Vein Endothelial cells (VEGF-stimulated HUVEC proliferation)", "test": "HUVEC Proliferation Assay (VEGF-stimulated)", "assay_type": "cell-based", "conditions": "VEGF 50 ng/mL, 72 h incubation, CyQuant readout, read-out: inhibited VEGF-stimulated HUVEC proliferation at a level below (IC50)", "protocol": "Human Umbilical Vein Endothelial cells are purchased from Clonetics, Inc., as cryopreserved cells harvested from a pool of donors. These cells, at passage 1, are thawed and expanded in EBM-2 complete medium, until passage 2 or 3. The cells are trypsinized, washed in DMEM+10% FBS+antibiotics, and spun at 1000 rpm for 10 min. Prior to centrifugation of the cells, a small amount is collected for a cell count. After centrifugation, the medium is discarded, and the cells are resuspended in the appropriate volume of DMEM+10% FBS+antibiotics to achieve a concentration of 3×10^5 cells/mL. Another cell count is performed to confirm the cell concentration. The cells are diluted to 3×10^4 cells/mL in DMEM+10% FBS+antibiotics, and 100 μL of cells are added to a 96-well plate. The cells are incubated at 37° C. for 22 h.\nPrior to the completion of the incubation period, compound dilutions are prepared. Five-point, five-fold serial dilutions are prepared in DMSO, at concentrations 400-fold greater than the final concentrations desired. 2.5 μL of each compound dilution are diluted further in a total of 1 mL DMEM+10% FBS+antibiotics (400× dilution). Medium containing 0.25% DMSO is also prepared for the 0 μM compound sample. At the 22-hour timepoint, the medium is removed from the cells, and 100 μL of each compound dilution is added. The cells are incubated at 37° C. for 2-3 h.\nDuring the compound pre-incubation period, the growth factors are diluted to the appropriate concentrations. Solutions of DMEM+10% FBS+antibiotics, containing either VEGF or bFGF at the following concentrations: 50, 10, 2, 0.4, 0.08, and 0 ng/mL are prepared. For the compound-treated cells, solutions of VEGF at 550 ng/mL or bFGF at 220 ng/mL for 50 ng/mL or 20 ng/mL final concentrations, respectively, are prepared since 10 μL of each will be added to the cells (110 μL final volume). At the appropriate time after adding the compounds, the growth factors are added. VEGF is added to one set of plates, while bFGF is added to another set of plates. For the growth factor control curves, the media on wells B4-G6 of plates 1 and 2 are replaced with media containing VEGF or bFGF at the varying concentrations (50-0 ng/mL). The cells are incubated at 37° C. for an additional 72 h.\nAt the completion of the 72 h incubation period, the medium is removed, and the cells are washed twice with PBS. After the second wash with PBS, the plates are tapped gently to remove excess PBS, and the cells are placed at −70° C. for at least 30 min. The cells are thawed and analyzed using the CyQuant fluorescent dye (Molecular Probes C-7026), following the manufacturer's recommendations. The plates are read on a Victor/Wallac 1420 workstation at 485 nm/530 nm (excitation/emission). Raw data are collected and analyzed using a 4-parameter fit equation in XLFit. IC50 values are then determined.", "units": {"IC50": "µM"}, "values": [{"smiles": "O=C(Nc1ccc(C(F)(F)C(F)(F)F)c(OC[C@@H](O)CN2CCCC2)c1)c1cccnc1Nc1ccc2cn[nH]c2c1", "note": "[Example 82, N-[3-(2-Hydroxy-3-pyrrolidin-1-yl-propoxy)-4-pentafluoroethyl-phenyl]-2-(1H-indazol-6-ylamino)-nicotinamide]", "IC50": "< 0.05"}, {"smiles": "CC1(C)CN(C2CCNCC2)c2cc(NC(=O)c3cccnc3Nc3ccc4cn[nH]c4c3)ccc21", "note": "[Example 100, N-(3,3-Dimethyl-1-piperidin-4-yl-2,3-dihydro-1H-indol-6-yl)-2-(1H-indazol-6-ylamino)-nicotinamide]", "IC50": "< 0.05"}, {"smiles": "CC(C)(C)c1ccc(NC(=O)c2cccnc2Nc2ccc3cn[nH]c3c2)cc1OC[C@@H]1CCCN1", "note": "[Example 96, N-[4-tert-Butyl-3-(pyrrolidin-2-ylmethoxy)-phenyl]-2-(1H-indazol-6-ylamino)-nicotinamide]", "IC50": "< 0.05"}, {"smiles": "CC1(C)COc2cc(NC(=O)c3cccnc3Nc3ccc4cn[nH]c4c3)ccc21", "note": "[Example 106, N-(3,3-Dimethyl-2,3-dihydro-benzofuran-6-yl)-2-(1H-indazol-6-ylamino)-nicotinamide]", "IC50": "< 0.05"}, {"smiles": "CC(C)c1cccc(NC(=O)c2cccnc2Nc2ccc3cn[nH]c3c2)c1", "note": "[Example 6, [2-(1H-Indazol-6-ylamino)(3-pyridyl)]-N-[3-(methylethyl)phenyl]carboxamide]", "IC50": "< 0.05"}, {"smiles": "CN1CCC(C(C)(C)c2ccc(NC(=O)c3cccnc3Nc3cccc4c3CNC4=O)cc2)CC1", "note": "[Example 603, N-{4-[1-Methyl-1-(1-methyl-piperidin-4-yl)-ethyl]-phenyl}-2-(1-oxo-2,3-dihydro-1H-isoindol-4-ylamino)-nicotinamide]", "IC50": "< 0.05"}, {"smiles": "CC(C)(C)c1ccc(NC(=O)c2cccnc2Nc2ccc3cn[nH]c3c2)cc1NC(=O)CN1CCCC1", "note": "[Example 587, N-(4-(1,1-Dimethylethyl)-3-((1-pyrrolidinylacetyl)amino)phenyl)-2-(1H-indazol-6-ylamino)-3-pyridinecarboxamide]", "IC50": "< 0.05"}, {"smiles": "CC1(C)CNC(=O)c2cc(NC(=O)c3cccnc3Nc3ccc4cn[nH]c4c3)ccc21", "note": "[Example 105, N-(4,4-Dimethyl-1-oxo-1,2,3,4-tetrahydro-isoquinolin-7-yl)-2-(1H-indazol-6-ylamino)-nicotinamide]", "IC50": "< 0.05"}, {"smiles": "Cc1cc(=O)[nH]c2cc(NC(=O)c3cccnc3Nc3ccc4cn[nH]c4c3)ccc12", "note": "[Example 14, [2-(1H-Indazol-6-ylamino)(3-pyridyl)]-N-(4-methyl-2-oxo-1,2-dihydroquinol-7-yl)carboxamide]", "IC50": "< 0.05"}, {"smiles": "CC(C)c1ccc(NC(=O)c2cccnc2Nc2ccc3cn[nH]c3c2)cc1", "note": "[Example 5, 2-(1H-Indazol-6-ylamino)-N-(4-isopropyl-phenyl)nicotinamide]", "IC50": "< 0.05"}, {"smiles": "O=C(Nc1cccc(C(F)(F)F)c1)c1ccc(F)nc1Nc1ccc2cn[nH]c2c1", "note": "[Example 68, [6-Fluoro-2-(1H-indazol-6-ylamino)(3-pyridyl)]-N-[3-(trifluoromethyl)phenyl]carboxamide]", "IC50": "< 0.05"}, {"smiles": "CC1(C)CNCc2cc(NC(=O)c3cccnc3Nc3ccc4cn[nH]c4c3)ccc21", "note": "[Example 126, N-(4,4-Dimethyl-1,2,3,4-tetrahydro-isoquinolin-7-yl)-2-(1H-indazol-6-ylamino)-nicotinamide]", "IC50": "< 0.05"}, {"smiles": "COc1ccc(C(C)(C)C)cc1NC(=O)c1cccnc1Nc1ccc2cn[nH]c2c1", "note": "[Example 25, N-[5-(tert-Butyl)-2-methoxyphenyl][2-(1H-indazol-6-ylamino)(3-pyridyl)]carboxamide]", "IC50": "< 0.05"}, {"smiles": "O=C(Nc1ccc(Cl)cc1)c1cccnc1Nc1ccc2cn[nH]c2c1", "note": "[Example 3, N-(4-Chlorophenyl)[2-(1H-indazol-6-ylamino)(3-pyridyl)]carboxamide]", "IC50": "< 0.05"}, {"smiles": "CN1CCN(Cc2cc(NC(=O)c3cccnc3Nc3ccc4cn[nH]c4c3)ccc2C(F)(F)C(F)(F)F)CC1", "note": "[Example 108, 2-(1H-Indazol-6-ylamino)-N-[3-(4-methyl-piperazin-1-ylmethyl)-4-pentafluoroethyl-phenyl]-nicotinamide]", "IC50": "< 0.05"}, {"smiles": "CC(C)(C)OC(=O)N1CCC[C@H]1COc1cc(NC(=O)c2cccnc2Nc2ccc3cn[nH]c3c2)ccc1C(C)(C)C", "note": "[Example 95, 1-Boc-2-(2-tert-Butyl-5-{[2-(1H-indazol-6-ylamino)-pyridine-3-carbonyl]-amino}-phenoxymethyl)-pyrrolidine]", "IC50": "< 0.05"}, {"smiles": "CC(C)(CCN1CCOCC1)c1ccc(NC(=O)c2cccnc2Nc2ccc3cn[nH]c3c2)cc1", "note": "[Example 63, N-[4-(1,1-Dimethyl-3-morpholin-4-ylpropyl)phenyl][2-(1H-indazol-6-ylamino)(3-pyridyl)]carboxamide]", "IC50": "< 0.05"}, {"smiles": "CC(C)(C)c1ccc(NC(=O)c2cccnc2Nc2ccc3cn[nH]c3c2)cc1CCCN1CCCC1", "note": "[Example 56, N-[4-(tert-Butyl)-3-(3-pyrrolidinylpropyl)phenyl][2-(1H-indazol-6-ylamino)(3-pyridyl)]carboxamide]", "IC50": "< 0.05"}, {"smiles": "CN1CC=C(c2cc(NC(=O)c3cccnc3Nc3ccc4cn[nH]c4c3)cc(C(F)(F)F)c2)CC1", "note": "[Example 121, 2-(1H-Indazol-6-ylamino)-N-[3-(1-methyl-1,2,3,6-tetrahydro-pyridin-4-yl)-5-trifluoromethyl-phenyl]-nicotinamide]", "IC50": "< 0.05"}, {"smiles": "CN1CCN(c2cc(NC(=O)c3cccnc3Nc3ccc4cn[nH]c4c3)ccc2C(C)(C)C)CC1", "note": "[Example 31, N-[4-(tert-Butyl)-3-(4-methylpiperazinyl)phenyl][2-(1H-indazol-6-ylamino)(3-pyridyl)]carboxamide]", "IC50": "< 0.05"}, {"smiles": "O=C(Nc1ccc(C(F)(F)C(F)(F)F)c(CN2CCOCC2)c1)c1cccnc1Nc1ccc2cn[nH]c2c1", "note": "[Example 110, 2-(1H-Indazol-6-ylamino)-N-(3-morpholin-4-ylmethyl-4-pentafluoroethyl-phenyl)-nicotinamide]", "IC50": "< 0.05"}, {"smiles": "O=C(Nc1cccc(C(F)(F)F)c1)c1cccnc1Nc1ccc2cn[nH]c2c1", "note": "[Example 9, [2-(1H-Indazol-6-ylamino)(3-pyridyl)]-N-[3-(trifluoromethyl)phenyl]carboxamide]", "IC50": "< 0.05"}, {"smiles": "CCCN1CCN(c2cc(NC(=O)c3cccnc3Nc3ccc4cn[nH]c4c3)ccc2C(C)(C)C)CC1", "note": "[Example 102, N-[4-tert-Butyl-3-(4-propyl-piperazin-1-yl)-phenyl]-2-(1H-indazol-6-ylamino)-nicotinamide]", "IC50": "< 0.05"}, {"smiles": "O=C(Nc1cccc(C(O)(C(F)(F)F)C(F)(F)F)c1)c1cccnc1Nc1cccc2c1CNC2=O", "note": "[Example 609, 2-(1-Oxo-2,3-dihydro-1H-isoindol-4-ylamino)-N-[3-(2,2,2-trifluoro-1-hydroxy-1-trifluoromethyl-ethyl)-phenyl]-nicotinamide]", "IC50": "< 0.05"}, {"smiles": "CN(C)CCOc1n[nH]c2cc(Nc3ncccc3C(=O)Nc3ccc(C(C)(C)C)cc3)ccc12", "note": "[Example 40, [2-({3-[2-(Dimethylamino)ethoxy](1H-indazol-6-yl)}amino)(3-pyridyl)]-N-[4-(tert-butyl)phenyl]carboxamide]", "IC50": "< 0.05"}, {"smiles": "CC(C)(C)c1ccc(NC(=O)c2cccnc2Nc2ccc3cn[nH]c3c2)cc1OCC1CCNCC1", "note": "[Example 93, N-[4-tert-Butyl-3-(piperidin-4-ylmethoxy)-phenyl]-2-(1H-indazol-6-ylamino)-nicotinamide]", "IC50": "< 0.05"}, {"smiles": "CC1(C)CNc2cc(NC(=O)c3cccnc3Nc3ccc4cn[nH]c4c3)ccc21", "note": "[Example 99, N-(3,3dimethyl-2,3-dihydro-1H-indol-6-yl)-2-(1H-indazol-6-ylamino)-nicotinamide]", "IC50": "< 0.05"}, {"smiles": "O=C(Nc1ccc(C(F)(F)C(F)(F)F)c(OC[C@H](O)CN2CCCC2)c1)c1cccnc1Nc1ccc2cn[nH]c2c1", "note": "[Example 80, N-[3-(2-Hydroxy-3-pyrrolidin-1-yl-propoxy)-4-pentafluoroethyl-phenyl]-2-(1H-indazol-6-ylamino)-nicotinamide]", "IC50": "< 0.05"}, {"smiles": "O=C(Nc1ccc(C(O)(C(F)(F)F)C(F)(F)F)cc1)c1cccnc1Nc1cccc2c1CNC2=O", "note": "[Example 608, 2-(1-Oxo-2,3-dihydro-1H-isoindol-4-ylamino)-N-[4-(2,2,2-trifluoro-1-hydroxy-1-trifluoromethyl-ethyl)-phenyl]-nicotinamide]", "IC50": "< 0.05"}]}]}
